# Experimental data taken from patent US20220386863A1, “SMART CONTACT LENS FOR DIAGNOSIS AND TREATMENT OF DRY EYE SYNDROME” (priority 2020, published 2022).
# Where two headings read alike, the source gives them in different places.
# Test system: anti-VEGF aptamer
# Details: for change in current on injection of VEGF: FET sensor with anti-VEGF aptamer, PBS base current, FIG. 2A
# Description: Electrodes using a gold thin film and silver nanowires were patterned on a silicon substrate using a photolithography method, and a semi-conductive layer was placed between the electrodes. In this case, silver nanowires were used as a material of the semi-conductive layer. Thereafter, an aptamer (anti-VEGF aptamer) capable of being coupled to a dry eye syndrome biomarker was coupled to the semi-conductive layer.
# Specifically, a silver nanowire channel was immersed in an 3-aminopropyldimethyl-ethoxysilane (APDES)/ethanol solution to introduce an amine group, and the silver nanowire channel was immersed in a sodium carbonate buffer including 1 wt % succinic anhydride to substitute the amine group with a carboxyl group. Then, after the silver nanowire channel is immersed in a phosphate buffered saline (PBS) solution, 1-ethyl-3(3-dimethyl aminopropyl)carbodiimide hydro-chloride (EDC) and sulfa N-hydroxysuccinimide (sulfa-NHS) were added to form an amide group. An aptamer solution was introduced into the channel, into which the amide group was introduced, to couple the channel and the probe. ?
# A VEGF was injected into the sensor in real time to monitor an intensity of a current flowing in the silver nanowire channel.
# Specifically, 200 μL of PBS was dropped onto the FET sensor to set a base current for 30 minutes, and then, a change in current generated by injecting a specific concentration of a VEGF was observed. ?
substance,measurement,setting,value
vascular endothelial growth factor [VEGF],change in current on injection of VEGF,104 pM VEGF injected,no difference in current
same,change in current on injection of VEGF,1.04 nM VEGF injected,large change
same,change in current on injection of VEGF,52 nM VEGF injected,large change
same,"stabilized current after VEGF injection, averaged per section","compared with the initial base current, FIG. 2B",higher than an initial base current
